We go through one compound from patent US20140128472A1, “TREATMENT AND PREVENTION OF DISEASES RELATED TO OXIDATIVE STRESS” (UNIVERSITY OF PÉCS, priority 2011, published 2014).

Each structure is given as a SMILES string. “Also recorded” adds a separate entry of the source.

In test [1] the test system is 3T3-L1 adipocytes. The experiment in a line: Insulin-dependent uptake of deoxy-D-glucose 2-[1 2-3H(N)] into 3T3-L1 adipocytes. It is filed as cell-based, mouse. The method, then: (§1) Primary cultures of mouse embryo fibroblasts (3T3-L1) were purchased from ATCC (Manassas, US). Early passages of 3T3-L1 fibroblasts were cultured in Dulbecco's modified Eagle medium ((DMEM, Invitrogen, CAT number: 41966-029; Sigma Aldrich CAT number: D6046) supplemented with 10% Fetal Bovine Serum (Gibco, CAT number: 16170-078), 100 U/ml penicillin and 0.1 mg/ml streptomycin (Gibco, CAT number: 15070-063) and 398 nM p-, m-, or o-Tyr. DMEM contained 25 or 5 mM glucose (depending on the experiment), L-glutamine, and pyruvate. Cells were grown in a humidified incubator at 37° C. and 5% CO2. Differentiation medium consisted of DMEM supplemented with 10% Fetal Bovine Serum (FBS, Gibco, Csertex, Budapest, Hungary, CAT number: 10106-169) (FBS), to which a cocktail was added containing […] isobuthylmethylxanthine (Sigma Aldrich, CAT number: I 5879), 0.17 nM insulin (Sigma Aldrich, CAT number: I 9278) and 250 nM dexamethasone (Sigma Aldrich, CAT number: 861871). From Day 4 onward, cells were maintained in DMEM/10% FBS containing […] insulin with a media change every other day until experimental treatments were initiated. For all treatments, cells were incubated overnight in serum-deprived medium after 90% of the cell population reached the adipocyte phenotype.
Cells were incubated in glucose free DMEM (Gibco, Csertex, Hungary) for 30 minutes, then treated with 2, 20, 200 or 400 nmol/l insulin for 100 minutes. Simultaneously 1 μCi/ml deoxy-D-glucose 2-[1 2-3H(N)] (3.7×104 Bq/ml) (Izotóp Intézet, Hungary) was added to the plates for 100 minutes Cells were scraped into the medium and centrifuged for 5 minutes at 1000 rpm. The sediment was dissolved in 70 μl of lysis-buffer and glucose uptake was assessed by scintillation counting measuring 30 μl of the sample with a Beckman LS 5000 TD counter in counts per minute (CPM) for five minutes each, using an average activity as the outcome. Samples were frozen overnight at −70° C. and protein concentration was measured using a Hitachi spectrophotometer. Results were normalized for protein content (Kaddai2009).

Test [2] relates to Akt (PKB). Put plainly: Erythropoietin-dependent phosphorylation of Akt (PKB) in 3T3-L1 adipocytes (Western blot). The note with it: 25 mM glucose; various concentrations of erythropoietin. Type of test: cell-based, mouse.
Test [3] concerns thoracic and abdominal aorta, renal and femoral arteries. The experiment in a line: Insulin-induced relaxation of isolated arterial segments after oral tyrosine isomer supplementation of rats. Type of test: in vivo, Sprague-Dawley rats. As to the method: The experiments were carried out with the permission of the Hungarian Local Animal Experiment Committee. Shortly after weaning male CFY rats (a strain of the Sprague-Dawley rat) were placed in individual cages and held on regular diet. After two hours of fasting animals (4-5 week-old, 80-140 g) were loaded with 1.76 mg/die para-, meta- or ortho-tyrosine (p-, m-, o-tyr; Sigma-Aldrich, Inc., St. Louis, Mo. 63178, USA) dissolved in saline or vehicle (saline only) by gavage (per os) six days of the week. After one month treatment, animals were either anaesthetized with ether and were decapitated with a guillotine or p-, m-, o-tyr and vehicle supplementation was discontinued (“washout” period) and they were sacrificed […] (FIG. 8.A). The descending thoracic and abdominal aorta, renal and femoral arteries were removed and cleaned from connective tissue (FIG. 19). Sections were immediately hydrolyzed for HPLC analysis or were used for vascular reactivity studies.
In further tyrosine isomer incorporation studies when effects of chronic oral p-Tyr and o-Tyr supplementation of rats on the o-Tyr level and insulin-induced relaxation of isolated arterial segments were studied, 18 Male Sprague-Dawley rats (5-6 week-old) were used. Rats were orally supplied with either 1.76 mg/die of p-Tyr or o-Tyr or vehicle during six days per week for four weeks. […] At the end of four-week treatment, HPLC and vasomotor studies were performed. In another group of rats, p-Tyr/o-Tyr supplementation was discontinued for four weeks (“washout” period), after which they were sacrificed for HPLC and vasomotor studies.
The modified method of Fésüs et al. (Fésüs2007) was used. The distal parts of the vessels were dissected into 2 mm long segments in ice-cold Krebs buffer and rings were mounted on two stainless steel wires (40 μm in diameter) in a Danish Multimyograph Model 610M (DMT-USA Inc., Atlanta, Ga., USA). Vessels were bathed in Krebs buffer (containing 119 mM NaCl, 4.7 mM KCl, 1.2 mM KH2PO4, 25 mM NaHCO3, 1.2 mM Mg2SO4, 11.1 mM glucose, 1.6 mM CaCl2*2H2O, pH 7.4) and gassed with 5% CO2 and 95% O2 at 37° C. The resting tension/internal circumference relationship for each vessel was determined and then the internal circumference was set to 0.9×L100, where L100 is the internal circumference the vessel would have had in vivo when relaxed under a transmural pressure of 100 mmHg After this normalization procedure vessels were allowed to stabilize for 30 min, and then isometric tension was continuously recorded. Rings were preconstricted with 100 nM epinephrine. After reaching a stabile contraction plateau, relaxant responses to increasing doses of insulin were assessed. The rate of relaxation was expressed as percentage of the contraction evoked by epinephrine (100%). Para-, meta-, ortho-tyrosine or vehicle were added to the vessel chamber 10 minutes before the addition of epinephrine and 30 minutes before the addition of insulin.

Test [4] concerns Akt (protein kinase B). The experiment in a line: Insulin-induced phosphorylation of Akt in 3T3-L1 adipocytes (Western blot). The following applies: cells grown on m-Tyr or o-Tyr; insulin 200 and 400 nmol/l. It is filed as cell-based, mouse. The method, then:
as §1
Following the treatment cells were washed twice with Saline (4° C.) to remove any trace of the medium, then exposed to 80 μL lysis buffer/plate, containing 1.15% Triton X, 1M Trisbase, pH 7.4, 0.5 M EDTA, pH 8, 0.2 M EGTA, pH 7, 0.1 M dithiothreitol (DTT), 5 mg/ml phenylmethylsulfonyl fluoride (PMSF), 0.1 M Na3VO4, 5 mg/ml leupeptin, 5 mg/ml aprotinin, Phoshatase Inhibitor Coctail 1 and 2 (Sigma Aldrich, CAT number: P2850 and P5726). Adypocytes were scraped off mechanically and then frozen at −70° C.
The samples of EC lysates were sonicated (2 min) and centrifuged (10 min, 13,000 rpm, at 4° C.). Protein content of samples was determined by the Bradford method using bovine serum albumin as a standard Bio-Rad Benchmark Plus. Samples were solubilized in a buffer of 100 mM Tris-HCl (pH 6.8), 4.0% sodium dodecyl sulphate (SDS), 20% glycerol, 200 mM DTT, and 0.2% bromophenol blue. […]
Membranes were incubated overnight with the immunoglobulin G (IgG) monoclonal antibodies diluted to 1:1000 in TBS-T (0.1%), containing 5% bovine serum (BS). […] Blots were detected using enhanced chemiluminescence (ECL; Pierce Biotech, Bio-Rad, Budapest, Hungary). Computerized densitometry (integrated optical density) of the specific bands was analyzed with Scion Image for Windows Software. […]
(In general: In western blotting, separated proteins are transferred to a membrane and probed.)

For `N[C@@H](Cc1cccc(O)c1)C(=O)O` [m-Tyr, Meta-L-tyrosine], the “Insulin-induced glucose uptake at equimolar concentrations with p-Tyr” value in test [1] (72-72 mg/l m-Tyr or o-Tyr and p-Tyr, insulin 400 nM) is listed as “fully inhibit insulin-induced glucose uptake; also recorded: insulin had no effect on glucose uptake at all”. The “Insulin-dependent deoxy-D-glucose uptake” value in test [1] (cells grown 11 days on medium with the tyrosine isomer + 5 mM glucose, insulin 2, 20, 200, 400 nM) is “no insulin effect could be verified”. Also, in test [1] (cells grown on m-Tyr- or o-Tyr-containing medium (72 mg/l) for different time periods, no insulin), the Baseline glucose uptake entry is recorded as “did not show a marked change”. In addition, in test [1] (m-Tyr or o-Tyr 72 mg/l for different time periods, insulin 400 nM, time-dependent manner), the “Insulin-induced glucose uptake, time dependence” value is listed as “blocked”. The “Ability to inhibit insulin-induced glucose uptake, dependence on concentration” value in test [1] (m-Tyr or o-Tyr 2.25-72 mg/l with p-Tyr 72 mg/l, insulin 400 nM) is “concentration-dependent”. Also, the “EPO-dependent Akt phosphorylation” value in test [2] is “inhibited the normal increase in the Akt phosphorylation”. Also, in test [3] (4th week, 1.76 mg/die per os, compared to control), the “Insulin-induced relaxation, abdominal aorta, femoral (and renal) arteries” value was “significantly diminished response to insulin”. In addition, in test [3] (4th week, 1.76 mg/die per os, compared to control/other groups), the “Insulin-induced relaxation, thoracic aorta” value is listed as “did not observe any significant further decline of response to insulin”. The “Chronic effects on insulin-induced vasorelaxation after washout” value in test [3] (8th week, 4 weeks washout, all segments) is given as “completely abolished”. Moreover, the “Insulin-induced Akt phosphorylation” value in test [4] is “inhibited the insulin-induced Akt-phosphorylation; also recorded: could not be significantly enhanced by insulin”.
